From patent publication US11999697B2, “Methods and compositions for inhibition of dihydroorotate dehydrogenase” (OHIO STATE INNOVATION FOUNDATION, priority 2018, dated 2024)

What was measured:
primary human AML cells [1] = assay: MTS assay in primary AML cells on HS5 stromal cells; assay type: cell-based; settings: 96 hours
Protocol: Triplicate wells were set up for each condition.
Cpd3 efficacy was assessed in primary AML samples. Due to the poor in vitro viability of primary cells, these assays were performed in the presence of a support layer of human bone marrow stromal cells (HS5). Cells were treated with Cpd3 or BQR for 96 hours, followed by viability using an MTS assay. FIGS. 2A-2B show representative data for proliferation of primary human AML cells in the presence of a representative disclosed compound, Cpd3, compared to a reference compound, brequinar (BQR), using a MTS cell proliferation assay as described herein below. Briefly, primary AML cells were cultured in the presence human bone marrow stromal cells, and were treated with vehicle (DMSO), or varying doses of Cpd3 or brequinar sodium (BQR) for 96 hours. Cell growth was determined at 96 hours relative to the vehicle (DMSO) control using an MTS assay (N=6 primary AML samples). […] The IC50 values determined were variable, with an […] of about 0.2 μM in some samples. However, in other primary cell samples an IC50 could not be determined (FIG. 2A).

primary human AML cells [2] = assay: CyTOF analysis of neutrophil differentiation; assay type: cell-based; settings: 0.5 μM, 7 days, cytokine supplemented media
Protocol: CyTOF analysis: primary human AML cells were treated with vehicle (DMSO) or Cpd3 (0.5 μM) in the presence of cytokine supplemented media for 7 days. Cells were then incubated with 5-Iodo-2′-deoxyuridine for 10 minutes at 37° C. and fixed with Smart Tube proteomic stabilizer. 1-2×10^6 cells were washed twice with cell staining media (CSM; 0.5% BSA, 0.02% sodium azide in PBS), permeablized with cold, 0.01% saponin in PBS, barcoded using the Cell-ID 20-Plex Pd Barcoding Kit (Fluidigm), incubated for 30 minutes at room temperature, washed again 3× with CSM. Cells were then incubated with Fc blocking reagent (10 minutes at room temperature; RT) after which a cocktail of extracellular antibodies (Table 14 below) were added (50 minutes at RT, with shaking). Cells were washed with CSM, fixed for 15 minutes (10% CSM, 1.5% PFA, in PBS), and washed with CSM. Membrane permeablization was performed with ice cold methanol incubated for 20 minutes at −20° C., followed by washing 1× with PBS and 2× with CSM, and incubation with the intracellular antibody cocktail (Table 10) (50 minutes at RT, with shaking). Cells were then rinsed 2× in CSM, 1× in PBS, and incubated in PBS containing 1.5% PFA and 125 nM iridium intercalator (pentamethylcyclopentadienyl-Ir(III)-dipyridophenazine) (Fluidigm) at 4° C. […]

[3] = test system: normal T-cells (CD4, CD8); assay: CFSE proliferation assay; assay type: cell-based, human; settings: 0.3 and 1 μM, CD3/CD28 stimulation, 72 hours
Protocol: CFSE proliferation assays: Peripheral blood mononuclear cells from healthy adults were negatively selected to enrich for CD3, CD4, or CD8 T-cells. Cells were then stained with carboxyfluorescein succinimidyl ester (CSFE) and stimulated with plate bound anti-CD3 and soluble anti-CD28 antibodies. Proliferation was determined by CFSE dilution in the presence of vehicle or Cpd3 (0.3 and 1 μM doses) at 72 hours.
FIGS. 7A-7I show representative cell proliferation data for normal T-cells following treatment with vehicle or a representative disclosed compound, Cpd3 in the presence or absence of CD3/CD28 stimulation using a CSFE proliferation flow cytometry assay as described herein below. Briefly, T-cells were isolated from normal healthy donors, labeled with CSFE, and then either left unstimulated or co-stimulated with CD3/CD28 in the presence of vehicle or Cpd3 (0.3 and 1 μM doses) for 72 hours. Proliferation was determined by CSFE dilution in CD4 and CD8 T-cells. Data shown in FIGS. 7A-7H were obtained from one representative normal donor.

[4] = test system: kinases (more than 480 kinase assays); assay: DiscoverX KINOMEscan panel; assay type: binding; settings: 1 μM and 10 μM
From the text: A representative disclosed compound, Cpd3, was screened for potential noncovalent binding interaction with kinases by screening a comprehensive panel in the DiscoverX KINOMEscan® platform (Eurofins DiscoverX Corporation, Fremont, Calif. 94538; e.g., see also Herman, S. E. M., et al., Clin Cancer Res; 23(11) Jun. 1, 2017). Panel allows for screening against more than 480 kinase assays including clinically relevant mutants, lipid, atypical, and pathogen kinases. The screening system provides for thermodynamic affinity data (as opposed to IC50s), and allows for detection of multiple inhibitor types, including type I, type II, and allosteric. […] It is notable that the upper limit tested in this screen is at least 10-fold greater than the observed in vitro IC50 for activity in the assays discussed above.

CCOc1ccc(-c2ccc(-c3cc(C(=O)O)c4cc(F)ccc4n3)cc2)cc1 [Cpd3, 2-(4′-ethoxy-[1,1′-biphenyl]-4-yl)-6-fluoroquinoline-4-carboxylic acid]
IC60 in primary AML samples (primary human AML cells [1]; HS5 stromal support, some samples): about 0.2 μM | growth of primary AML cells (primary human AML cells [1]; N=6 primary AML samples): decreases growth of primary AML cells comparable to the reference compound | induction of neutrophil differentiation (primary human AML cells [2]): significant induction of neutrophil differentiation | T-cell proliferation [3]: inhibits T-cell proliferation | noncovalent binding interaction with kinases [4]: no apparent interactions with the screen targets
